Consider 11 molecules from patent publication US7585976B2, “Hemiasterlin derivatives and uses thereof” (priority 2002, dated 2009).

This data set is described as follows: Screening profile of desired properties (growth inhibition, MDR, cytotoxicity, mouse serum stability, mitotic block reversibility, xenografts). The following applies: properties (i)-(vii). How it is done: In certain embodiments, compounds of the invention were tested for in vitro and in vivo activity. Screening methods included standard in vitro cell growth inhibition assays using a panel of human cancer cell lines, a U937 (ATCC accession number CRL 1593) mitotic block reversibility assay, mouse serum stability assay, MDR assay, and cytotoxicity assay. In certain other emdodiments, compounds of the invention were evaluated in tumor xenograft in vivo growth inhibition assays.

SMILES strings stand for the structures.

Take `C/C(=C\[C@H](C(C)C)N(C)C(=O)[C@@H](NC(=O)[C@H]1CCCCN1C(C)C(C)C)C(C)(C)C)C(=O)O` (single isomer, unassigned) [ER-808662]: the “desired properties (growth inhibition IC50, resistance ratio, cytotoxicity in non-dividing cells, mouse serum stability, reversibility ratio, tumor regression, T/C)” value is given as “exhibiting desired properties”.

With `CN[C@H](C(=O)N[C@H](C(=O)N(C)[C@H](/C=C(\C)C(=O)N1CCC[C@H]1C(=O)OC)C(C)C)C(C)(C)C)C(C)(C)c1ccccc1` [ER-805736], the “desired properties (growth inhibition IC50, resistance ratio, cytotoxicity in non-dividing cells, mouse serum stability, reversibility ratio, tumor regression, T/C)” value is listed as “exhibiting desired properties”. In the case of `CN[C@H](C(=O)N[C@H](C(=O)N(C)[C@H](/C=C(\C)C(=O)O)C(C)C)C(C)(C)C)C(C)(C)c1ccc(OCc2ccccc2)cc1` [ER-805913], the “desired properties (growth inhibition IC50, resistance ratio, cytotoxicity in non-dividing cells, mouse serum stability, reversibility ratio, tumor regression, T/C)” value was “exhibiting desired properties”. `CN[C@H](C(=O)N[C@H](C(=O)N(C)[C@H](CN(C)CC(=O)N1CCC[C@H]1C(=O)OC)C(C)C)C(C)(C)C)C(C)(C)c1ccccc1` [ER-806925]: the “desired properties (growth inhibition IC50, resistance ratio, cytotoxicity in non-dividing cells, mouse serum stability, reversibility ratio, tumor regression, T/C)” value is “exhibiting desired properties”. For `C/C(=C\[C@H](C(C)C)N(C)C(=O)[C@@H](NC(=O)[C@H]1CCCCN1C)C(C)(C)C)C(=O)O` [ER-807102], the “desired properties (growth inhibition IC50, resistance ratio, cytotoxicity in non-dividing cells, mouse serum stability, reversibility ratio, tumor regression, T/C)” value is reported as “exhibiting desired properties”. With `CN[C@H](C(=O)N[C@H](C(=O)N(C)[C@H](CN1CCC[C@H]1C(=O)N1CCC[C@H]1C(N)=O)C(C)C)C(C)(C)C)C(C)(C)c1ccccc1` [ER-807328], the “desired properties (growth inhibition IC50, resistance ratio, cytotoxicity in non-dividing cells, mouse serum stability, reversibility ratio, tumor regression, T/C)” value is given as “exhibiting desired properties”.

For the molecule `CCC(CC)(NC)C(=O)N[C@H](C(=O)N(C)[C@H](/C=C(\C)C(=O)O)C(C)C)C(C)(C)C` [ER-807850], the “desired properties (growth inhibition IC50, resistance ratio, cytotoxicity in non-dividing cells, mouse serum stability, reversibility ratio, tumor regression, T/C)” value is reported as “exhibiting desired properties”. The entry for `CC(C)OC(=O)[C@@H]1CCCN1C(=O)[C@@H]1CCCN1C[C@H](C(C)C)N(C)C(=O)[C@@H](NC(=O)C1CCCCN1C)C(C)(C)C` (some centres unmarked) [ER-807904] is “exhibiting desired properties”; for `C/C(=C\[C@H](C(C)C)N(C)C(=O)[C@@H](NC(=O)[C@H]1CCCCN1C(C)C)C(C)(C)C)C(=O)O` [ER-807974] it is “exhibiting desired properties”.

In the case of `CCC(C)N1CCCC[C@@H]1C(=O)N[C@H](C(=O)N(C)[C@H](/C=C(\C)C(=O)O)C(C)C)C(C)(C)C` (some centres unmarked) [ER-808368], the “desired properties (growth inhibition IC50, resistance ratio, cytotoxicity in non-dividing cells, mouse serum stability, reversibility ratio, tumor regression, T/C)” value is recorded as “exhibiting desired properties”. For `CCC(C)N1CCCC[C@@H]1C(=O)N[C@H](C(=O)N(C)[C@H](/C=C(\C)C(=O)O)C(C)C)C(C)C` (some centres unmarked) [ER-808824], the “desired properties (growth inhibition IC50, resistance ratio, cytotoxicity in non-dividing cells, mouse serum stability, reversibility ratio, tumor regression, T/C)” value is “exhibiting desired properties”.
